US11759462B2, “Spirocyclic compounds as tryptophan hydroxylase inhibitors” (priority 2013, dated 2023)

Target: T1, Recombinant human TPH1 (MBP tagged) (Homo sapiens, UniProt P17752)
T1 construct: cloning full length human TPH1 cDNA in to a bacterial pMAL-c5E expression vector; made in house; host or cells: E. coli BL21 (DE3)
T1 sequence (P17752 1-444): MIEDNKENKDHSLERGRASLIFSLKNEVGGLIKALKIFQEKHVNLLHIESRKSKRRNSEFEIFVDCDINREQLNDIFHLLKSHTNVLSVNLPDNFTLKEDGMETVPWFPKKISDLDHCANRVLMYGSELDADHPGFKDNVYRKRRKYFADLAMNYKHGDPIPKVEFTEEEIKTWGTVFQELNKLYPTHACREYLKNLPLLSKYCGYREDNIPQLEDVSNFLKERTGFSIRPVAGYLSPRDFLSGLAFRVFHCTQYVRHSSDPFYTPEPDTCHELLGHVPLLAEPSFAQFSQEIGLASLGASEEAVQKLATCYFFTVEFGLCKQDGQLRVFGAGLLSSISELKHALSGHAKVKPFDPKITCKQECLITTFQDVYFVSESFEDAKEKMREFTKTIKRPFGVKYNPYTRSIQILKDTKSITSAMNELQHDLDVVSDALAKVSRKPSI
Assay: TPH1 in vitro inhibition assay (kinetic fluorescence)
Type: biochemical
Details: TPH1 Range (TPH1 inhibition IC50)
Outline: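 Final mix: 15 nM MBP-TPH1, 30 μM Trp, 36 μM 6-methyltetrahydropterin, 25 μM ferrous ammonium sulfate, 50 mM MES pH 7.1, 1% DMSO, room temperature.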

SMILES	IC50 [µM]
Cc1nn(C)c2cc(-c3ccc([C@@H](Oc4cc(N5CCC6(CC5)CN[C@H](C(=O)O)C6)nc(N)n4)C(F)(F)F)cc3)ccc12 [Example 55ba, (S)-8-(2-amino-6-((R)-1-(4-(1,3-dimethyl-1H-indazol-6-yl)phenyl)-2,2,2-trifluoroethoxy)pyrimidin-4-yl)-2,8-diazaspiro[4.5]decane-3-carboxylic acid]	< 0.05
Nc1nc(O[C@H](c2ccc(Cl)cc2-c2ccc(Cl)cc2)C(F)(F)F)cc(N2CCC3(CC2)CN[C@H](C(=O)O)C3)n1 [Example 34bw, (S)-8-(2-amino-6-((R)-1-(4′,5-dichloro-[1,1′-biphenyl]-2-yl)-2,2,2-trifluoroethoxy)pyrimidin-4-yl)-2,8-diazaspiro[4.5]decane-3-carboxylic acid]	0.05 to 0.3

Same assay, conditions: read-out: TPH1 Range (TPH1 inhibition IC50)

SMILES	IC50 [µM]
Cc1ccn(-c2cc(-c3ccc(OCC(C)(C)C)cc3)ccc2[C@@H](Oc2cc(N3CCC4(CC3)CN[C@H](C(=O)O)C4)nc(N)n2)C(F)(F)F)n1 [Example 1cn, (S)-8-(2-amino-6-((R)-2,2,2-trifluoro-1-(3-(3-methyl-1H-pyrazol-1-yl)-4′-(neopentyloxy)-[1,1′-biphenyl]-4-yl)ethoxy)pyrimidin-4-yl)-2,8-diazaspiro[4.5]decane-3-carboxylic acid]	< 0.05
Cc1ccn(-c2cc(-c3ccc(OC(F)(F)F)cc3)ccc2[C@@H](Oc2cc(N3CCC4(CC3)CN[C@H](C(=O)O)C4)nc(C)n2)C(F)(F)F)n1 [Example 29t, (S)-8-(2-methyl-6-((R)-2,2,2-trifluoro-1-(3-(3-methyl-1H-pyrazol-1-yl)-4′-(trifluoromethoxy)-[1,1′-biphenyl]-4-yl)ethoxy)pyrimidin-4-yl)-2,8-diazaspiro[4.5]decane-3-carboxylic acid]	0.05 to 0.3
CCCCc1ccc(-c2ccc([C@@H](Oc3cc(N4CCC5(CC4)CN[C@H](C(=O)O)C5)nc(N)n3)C(F)(F)F)cc2)cc1 [Example 55ct, (S)-8-(2-amino-6-((R)-1-(4′-butyl-[1,1′-biphenyl]-4-yl)-2,2,2-trifluoroethoxy)pyrimidin-4-yl)-2,8-diazaspiro[4.5]decane-3-carboxylic acid]	0.3 to 3
Nc1nc(O[C@H](c2ccc(Br)cc2)C(F)(F)F)cc(N2CCC3(CC2)CN[C@H](C(=O)O)C3)n1 [Example 59, (S)-8-(2-amino-6-((R)-1-(4-bromophenyl)-2,2,2-trifluoroethoxy)pyrimidin-4-yl)-2,8-diazaspiro[4.5]decane-3-carboxylic acid]	0.3 to 3
Nc1nc(O[C@H](c2ccc(-c3cccc(O)c3)cc2)C(F)(F)F)cc(N2CCC3(CC2)CN[C@H](C(=O)O)C3)n1 [Example 55ca, (S)-8-(2-amino-6-((R)-2,2,2-trifluoro-1-(3′-hydroxy-[1,1′-biphenyl]-4-yl)ethoxy)pyrimidin-4-yl)-2,8-diazaspiro[4.5]decane-3-carboxylic acid]	0.05 to 0.3
Nc1nc(NCc2ccc3ccccc3c2)nc(N2CCC3(CC2)CNC(C(=O)O)C3)n1 (stereo not drawn) [Example 39a, 8-(4-Amino-6-((naphthalen-2-ylmethyl)amino)-1,3,5-triazin-2-yl)-2,8-diazaspiro[4.5]decane-3-carboxylic acid]	0.3 to 3
Cn1cnc2cc(-c3ccc([C@@H](Oc4cc(N5CCC6(CC5)CN[C@H](C(=O)O)C6)nc(N)n4)C(F)(F)F)cc3)ccc21 [Example 55c, (S)-8-(2-amino-6-((R)-2,2,2-trifluoro-1-(4-(1-methyl-1H-benzo[d]imidazol-5-yl)phenyl)ethoxy)pyrimidin-4-yl)-2,8-diazaspiro[4.5]decane-3-carboxylic acid]	0.05 to 0.3
Cc1cc(-c2ccc3ncc(F)cc3c2)ccc1[C@@H](Oc1cc(N2CCC3(CC2)CN[C@H](C(=O)O)C3)nc(N)n1)C(F)(F)F [Example 59c, (S)-8-(2-amino-6-((R)-2,2,2-trifluoro-1-(4-(3-fluoroquinolin-6-yl)-2-methylphenyl)ethoxy)pyrimidin-4-yl)-2,8-diazaspiro[4.5]decane-3-carboxylic acid]	0.05 to 0.3
Cc1ccn(-c2cc(C(=O)OC3CCCC3)ccc2[C@@H](Oc2cc(N3CCC4(CC3)CN[C@H](C(=O)O)C4)nc(N)n2)C(F)(F)F)n1 [Example 18f, (S)-8-(2-amino-6-((R)-1-(4-((cyclopentyloxy)carbonyl)-2-(3-methyl-1H-pyrazol-1-yl)phenyl)-2,2,2-trifluoroethoxy)pyrimidin-4-yl)-2,8-diazaspiro[4.5]decane-3-carboxylic acid]	< 0.05
Cc1ccc(-c2cc(Cl)ccc2[C@@H](Oc2cc(N3CCC4(CC3)CN[C@H](C(=O)O)C4)nc(N)n2)C(F)(F)F)cc1Cl [Example 34aj, (S)-8-(2-amino-6-((R)-1-(3′,5-dichloro-4′-methyl-[1,1′-biphenyl]-2-yl)-2,2,2-trifluoroethoxy)pyrimidin-4-yl)-2,8-diazaspiro[4.5]decane-3-carboxylic acid]	0.05 to 0.3
CC(C)Oc1ccc(-c2ccc([C@@H](Oc3cc(N4CCC5(CC4)CN[C@H](C(=O)O)C5)nc(N)n3)C(F)(F)F)c(-c3ccccc3)c2)cc1 [Example 54b, (S)-8-(2-amino-6-((R)-2,2,2-trifluoro-1-(4-isopropoxy-[1,1′:3′,1″-terphenyl]-4′-yl)ethoxy)pyrimidin-4-yl)-2,8-diazaspiro[4.5]decane-3-carboxylic acid]	0.05 to 0.3
Cn1ncc2ccc(-c3ccc([C@@H](Oc4cc(N5CCC6(CC5)CN[C@H](C(=O)O)C6)nc(N)n4)C(F)(F)F)cc3)cc21 [Example 55i, (S)-8-(2-amino-6-((R)-2,2,2-trifluoro-1-(4-(1-methyl-1H-indazol-6-yl)phenyl)ethoxy)pyrimidin-4-yl)-2,8-diazaspiro[4.5]decane-3-carboxylic acid]	< 0.05
Nc1nc(O[C@H](c2ccc(-c3ccccc3)cc2-c2ccccc2)C(F)(F)F)cc(N2CCC3(CC2)CN[C@H](C(=O)O)C3)n1 [Example 54g, (S)-8-(6-((R)-1-([1,1′:3′,1″-terphenyl]-4′-yl)-2,2,2-trifluoroethoxy)-2-aminopyrimidin-4-yl)-2,8-diazaspiro[4.5]decane-3-carboxylic acid]	0.05 to 0.3
Nc1nc(O[C@H](c2ccc(-c3ccc4cccnc4c3)cc2)C(F)(F)F)cc(N2CCC3(CC2)CN[C@H](C(=O)O)C3)n1 [Example 55bh, (S)-8-(2-amino-6-((R)-2,2,2-trifluoro-1-(4-(quinolin-7-yl)phenyl)ethoxy)pyrimidin-4-yl)-2,8-diazaspiro[4.5]decane-3-carboxylic acid]	0.05 to 0.3
Nc1nc(O[C@H](c2ccc(-c3cccc(C(=O)O)c3)cc2)C(F)(F)F)cc(N2CCC3(CC2)CN[C@H](C(=O)O)C3)n1 [Example 55bq, (S)-8-(2-amino-6-((R)-1-(3′-carboxy-[1,1′-biphenyl]-4-yl)-2,2,2-trifluoroethoxy)pyrimidin-4-yl)-2,8-diazaspiro[4.5]decane-3-carboxylic acid]	0.3 to 3
Cc1ccn(-c2cc(-c3ccc(CN)cc3)ccc2[C@@H](Oc2cc(N3CCC4(CC3)CN[C@H](C(=O)O)C4)nc(N)n2)C(F)(F)F)n1 [Example 1ab, (S)-8-(2-amino-6-((R)-1-(4′-(aminomethyl)-3-(3-methyl-1H-pyrazol-1-yl)-[1,1′-biphenyl]-4-yl)-2,2,2-trifluoroethoxy)pyrimidin-4-yl)-2,8-diazaspiro[4.5]decane-3-carboxylic acid]	< 0.05
